Laboratory results taken from patent US20230024521A1, “JAK INHIBITORS” (Vimalan Biosciences, Inc., priority 2019, published 2023).
Read-outs that look alike come from different tables or passages of the source.

Legend:
[1] = test system: JAK1/JAK3: IL-2 stimulated STAT5 phosphorylation; assay: JAK1/JAK3: IL-2 stimulated STAT5 phosphorylation in PBMCs; format: cell-based, human; details: PBMC
Method: Example B: JAK1/JAK3: IL-2 Stimulated STAT5 Phosphorylation in PBMCs
Human PBMCs: (Precision Biomedicine)
Thaw as per instructions. Thaw frozen PBMCs in 37° C. water bath. Transfer cell suspension to 9 mL of pre-warmed complete media (RPMI+10% FBS+L-Glu+Pen/Strep). Centrifuge at 400×g for 5 min and wash cells with 10 mL of complete media. Resuspend pellet for a cell-count of 3×10^6 cells/mL
Seed cells into 96-deep well at 80 uL/well based on experimental plate layout. Add 10 μL of (10× conc.) of different concentrations of compounds to all wells except controls (unstimulated) and mix it with 200 uL multichannel pipet. Add 10 uL of complete RPMI media with same % DMSO in controls. For dilution of compounds and dilution range please refer to appendix. Incubate in 5% CO2 incubator for 1 hour at 37° C. Add 10 μL of (10× conc.) IL-2 (final conc. 50 ng/mL) to each well except unstimulated and unstained controls and incubate further for 20 minutes in water bath at 37° C.
Add 900 μL of prewarmed 1× Fix/Lyse solution (Appendix) and mix it properly using 1000 μL multichannel pipet; incubate further on water bath at 37° C. for 10 minutes. Centrifuge at 800×g for 5 minutes, remove 900 uL of supernatant, and add 1000 μL of freshly prepared wash buffer or 1× PBS. Centrifuge at 800×g for 5 minutes, remove 900 μL of supernatant, and resuspend the pellet in remaining buffer.
Disrupt the pellet by gentle tapping and add 1000 μL of ice cold BD Phosflow Perm Buffer III and incubate further on ice for 30 minutes. Centrifuge at 800×g for 5 minutes. Wash two more times with 1000 μL of BD Stain buffer, remove supernatant except 100 uL of buffer after the last wash.
Disrupt the pellet by gentle tapping, add 100 uL of stain buffer and 5 μL of pSTAT5_Alex488 […] in all appropriate wells and mix properly using 200 μL multichannel pipet. Incubate plate overnight at […]. Add 900 μL of BD stain buffer and centrifuge at 800×g for 5 minutes. Wash one additional time with 1000 μL of buffer. Finally resuspend the pellet in 300 uL of BD stain buffer.
Transfer the cells to 96-well v-bottom plate and acquire the cells in Beckman Coulter Cytoflex. Acquiring cells in Flow Cytometer: Keep the threshold value to 250. Acquire at least 8,000-10,000 cells.
(§1) RPMI 1640 Complete Medium: RPMI 1640 media+10% FBS.
Cytokine dilution: 1) IL-2 Stock at 100 ug/mL. Prepare a 0.5 ug/mL dilution by adding 5 uL of stock into 995 uL of cRPMI. Keep it on ice until used.
(§2) Lyse/Fix buffer preparation: Dilute 5× Lyse/Fix buffer to 1× using MQ water and keep at 37° C. until used.
(§3) BD Phosflow perm buffer III: Keep on ice/fridge

[2] = test system: JAK2: GM-CSF stimulated STAT5 phosphorylation; assay: Co-stimulation assay in lysed whole blood; JAK2: GM-CSF stimulated STAT5 phosphorylation; format: cell-based, human
Method: Example C: Co-Stimulation Assay in Lysed Whole Blood; JAK2: GM-CSF Stimulated STAT5 Phosphorylation and JAK1/TYK2 Stimulated STAT1 Phosphorylation Assay
Human Blood Lysis using abcam's RBC lysis buffer
Dilute RBC lysis buffer to 1× in distilled water. Add 2 mL blood to 38 mL of 1×RBC-lysis buffer. Incubate for 15 mins at RT, in dark. Spin at 300 g, 5 mins, to collect the pellet. Re-lyse if necessary. Re-suspend pellet in 5 mL of cRPMI.
Aliquot 80 μL of lysed human blood in to wells of 96 deep-well plate. Add 10 μl of (10× conc.) of different concentrations of compounds to all wells except controls (unstained and unstimulated) and mix it with the help of 100 uL multichannel Add 10 uL of RPMI media in controls. For dilution of compounds and dilution range please refer Appendix. Incubate on water bath or CO2 incubator for 1 hour at 37° C. Add 10 μl of (10× conc.) of cytokine mix (GM-CSF and IFNa) (final conc. 10 ng/mL of GM-CSF and 100 ng/mL of IFNa) to each well except unstimulated and unstained controls and incubate further for 20 minutes on water bath at 37° C.
Add 900 μL of prewarmed 1× Fix/Lyse solution (Appendix) and mix it properly using 1000 μl multichannel, incubate further on water bath at 37° C. for 10 minutes (which includes time of addition). Centrifuge at 800×g for 5 minutes at 40° C.; remove 900 uL of supernatant and add 900 μL of 1×PBS. Centrifuge at 800×g for 5 minutes at 40° C., remove 900 μL of supernatant. Wash one more time with 900 μL of PBS (optional) and resuspend pellets in 100 uL of PBS.
Disrupt the pellet by gentle tapping and resuspend in 1000 μL of BD Phosflow Perm Buffer III and incubate plate on ice for 30 minutes. Centrifuge plate at 800×g for 5 minutes at 40° C. Wash two more times with 1000 μL of BD Pharmingen Stain Buffer.
Disrupt the pellet by gentle tapping. Resuspend pellets in 100 uL of Stain Buffer and add 5 μL of pSTAT5_AF488 Ab and 5 uL of pSTAT1_PE in all wells except unstained control and mix properly using 200 μl multichannel, incubate overnight at […]. Add 900 μL of wash buffer and centrifuge at 1800 rpm for 3 minutes at […]. Wash one more time with 1000 μL of BD Pharmingen Stain Buffer. Finally resuspend the pellet in 300 uL of BD Pharmingen Stain Buffer. Transfer the cells to 96-well v-bottom plate and acquire the cells in Beckman Coulter CytExpert. Acquiring cells in Flow Cytometer: Keep the threshold value to 250 and cell concentration should not exceed 100-500 cells/4. Acquire at least 5,000-10,000 cells.
as §1
Cytokine dilution: 1) GM-CSF Stock at 100 ug/mL. Prepare an intermediate dilution of 1 ug/mL by adding 2 uL of stock into 198 uL of cRPMI. Further dilute to 100 ng/mL by adding 100 uL of the intermediate stock to 900 uL of cRPMI. 2) IFNa Stock at 200 ug/mL. Dilute IFNa stock 1:200 by adding 5 uL of stock into the 1000 uL of 100 ng/mL GM-CSF working stock as above to give a combined working stock of 1000 ng/mL of IFNa and 100 ng/mL GM-CSF (10×). Keep it on ice until used.
as §2, §3

[3] = human PBMCs, IL-2 50 ng/mL, pSTAT5 by flow cytometry, read-out: IL-2/J1J3/pS5: IC50 GeoMean
[4] = lysed human whole blood, GM-CSF 10 ng/mL (with IFNa 100 ng/mL), pSTAT5 by flow cytometry, read-out: GMCSF/J2/pS5: GeoMean
[5] = Homo sapiens, read-out: IL-2/J1J3/pS5: IC50 GeoMean (nM)
[6] = Homo sapiens, read-out: GMCSF/J2/pS5: GeoMean (nM)

Row | IC50 [1, 3] [nM] | IC50 [2, 4] [nM] | SMILES | IC50 [1, 5] [nM] | IC50 [2, 6] [nM]
1 | < 100 | 100 to 1000 | CC[C@H](Cn1ccc2cnc(Nc3cnn(CC(N)=O)c3)nc21)C(C)C [Example 1, (S)-2-(4-((7-(2-ethyl-3-methylbutyl)-7H-pyrrolo[2,3-d]pyrimidin-2-yl)amino)-1H-pyrazol-1-yl) acetamide] | – | –
2 | – | – | CC[C@H](Cn1ccc2cnc(Nc3cnn(CC(=O)N4CCOC4=O)c3)nc21)C(C)C [Example 3, (5)-3-(2-(4-((7-(2-ethyl-3-methylbutyl)-7H-pyrrolo[2,3-d]pyrimidin-2-yl)amino)-1H-pyrazol-1-yl)acetyl) oxazolidin-2-one] | < 100 | 1000 to 10000
3 | < 100 | 100 to 1000 | CCC(CC)Cn1ccc2cnc(Nc3cnn(CC(N)=O)c3)nc21 [Example 7, 2-(4-((7-(2-ethylbutyl)-7H-pyrrolo[2,3-d]pyrimidin-2-yl)amino)-1H-pyrazol-1-yl) acetamide] | – | –
4 | – | – | CC[C@@H](Cn1ccc2cnc(Nc3cnn(C4CCNC4=O)c3)nc21)C(C)C (some centres unmarked) [Example 8] | < 100 | 1000 to 10000
